In ChEMBL document CHEMBL5653615 (J Biol Chem, 2013):

How the values were obtained:
[1] = target: T1, Serine/threonine-protein kinase Nek2 (Homo sapiens) (UniProt P51955); test: Inhibition of human NEK2 at 500 nM by HotSpot assay relative to control
T1 sequence (whole entry): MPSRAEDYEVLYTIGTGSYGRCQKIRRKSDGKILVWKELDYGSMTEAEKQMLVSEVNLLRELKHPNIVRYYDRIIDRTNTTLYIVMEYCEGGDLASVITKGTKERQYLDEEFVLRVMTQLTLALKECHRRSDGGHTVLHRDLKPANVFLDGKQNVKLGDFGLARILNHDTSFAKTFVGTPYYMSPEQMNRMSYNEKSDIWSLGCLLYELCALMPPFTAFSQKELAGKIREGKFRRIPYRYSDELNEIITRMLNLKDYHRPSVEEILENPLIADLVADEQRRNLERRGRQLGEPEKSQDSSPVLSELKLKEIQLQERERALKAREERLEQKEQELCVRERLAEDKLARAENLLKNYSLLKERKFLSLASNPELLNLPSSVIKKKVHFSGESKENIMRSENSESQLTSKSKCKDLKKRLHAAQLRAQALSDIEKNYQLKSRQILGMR

[2] = target: Serine/threonine-protein kinase Nek4 (Homo sapiens) (UniProt P51957); test: Inhibition of human NEK4 at 500 nM by HotSpot assay relative to control
[3] = target: T2, Lymphokine-activated killer T-cell-originated protein kinase (Homo sapiens) (UniProt Q96KB5); test: Inhibition of human TOPK at 500 nM by HotSpot assay relative to control
T2 sequence (whole entry): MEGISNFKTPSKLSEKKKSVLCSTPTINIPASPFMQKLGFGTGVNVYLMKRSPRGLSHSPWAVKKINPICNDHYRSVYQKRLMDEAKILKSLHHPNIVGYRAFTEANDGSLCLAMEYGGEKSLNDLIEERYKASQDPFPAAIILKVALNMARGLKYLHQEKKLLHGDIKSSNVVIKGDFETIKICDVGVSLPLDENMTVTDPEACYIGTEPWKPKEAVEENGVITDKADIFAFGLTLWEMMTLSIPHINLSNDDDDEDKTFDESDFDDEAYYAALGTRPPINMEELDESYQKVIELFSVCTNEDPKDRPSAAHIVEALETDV

[4] = target: T3, Mitogen-activated protein kinase 12 (Homo sapiens) (UniProt P53778); test: Inhibition of human P38g at 500 nM by HotSpot assay relative to control
T3 sequence (whole entry): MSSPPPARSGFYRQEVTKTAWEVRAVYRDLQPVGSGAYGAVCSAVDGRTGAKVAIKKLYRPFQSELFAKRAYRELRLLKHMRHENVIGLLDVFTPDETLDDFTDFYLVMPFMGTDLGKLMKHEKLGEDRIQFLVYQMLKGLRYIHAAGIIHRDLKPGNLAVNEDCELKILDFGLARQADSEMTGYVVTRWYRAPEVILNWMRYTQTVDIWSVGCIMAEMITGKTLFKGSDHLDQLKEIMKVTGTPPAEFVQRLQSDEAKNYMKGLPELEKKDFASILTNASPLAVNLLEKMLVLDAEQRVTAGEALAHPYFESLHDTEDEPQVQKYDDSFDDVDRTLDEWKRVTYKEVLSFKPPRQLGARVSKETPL

[5] = target: T4, Protein kinase C iota type (Homo sapiens) (UniProt P41743); test: Inhibition of human PKCiota at 500 nM by HotSpot assay relative to control
T4 sequence (whole entry): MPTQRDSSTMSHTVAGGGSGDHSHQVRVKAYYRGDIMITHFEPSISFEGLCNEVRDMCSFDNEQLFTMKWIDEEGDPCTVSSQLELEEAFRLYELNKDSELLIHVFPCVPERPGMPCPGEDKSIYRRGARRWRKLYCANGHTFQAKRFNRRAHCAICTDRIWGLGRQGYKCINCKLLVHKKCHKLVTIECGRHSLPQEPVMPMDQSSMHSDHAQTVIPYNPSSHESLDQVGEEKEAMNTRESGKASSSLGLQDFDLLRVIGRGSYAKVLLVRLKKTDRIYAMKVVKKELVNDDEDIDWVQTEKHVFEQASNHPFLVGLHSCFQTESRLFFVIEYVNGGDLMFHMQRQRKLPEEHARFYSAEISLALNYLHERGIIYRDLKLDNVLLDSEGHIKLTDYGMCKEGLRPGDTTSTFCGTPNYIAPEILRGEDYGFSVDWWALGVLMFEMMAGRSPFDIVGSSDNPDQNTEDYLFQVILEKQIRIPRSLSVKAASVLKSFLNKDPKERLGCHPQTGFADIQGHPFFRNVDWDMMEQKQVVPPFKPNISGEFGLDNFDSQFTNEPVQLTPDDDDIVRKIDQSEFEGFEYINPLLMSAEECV

[6] = target: Casein kinase I isoform gamma-3 (Homo sapiens) (UniProt Q9Y6M4); test: Inhibition of human CK1g3 at 500 nM by HotSpot assay relative to control
[7] = target: Ribosomal protein S6 kinase beta-1 (Homo sapiens) (UniProt P23443); test: Inhibition of human RPS6KB1 at 500 nM by HotSpot assay relative to control
[8] = target: Glycogen synthase kinase-3 alpha (Homo sapiens) (UniProt P49840); test: Inhibition of human GSK3a at 500 nM by HotSpot assay relative to control
[9] = target: Ribosomal protein S6 kinase alpha-5 (Homo sapiens) (UniProt O75582); test: Inhibition of human RPS6KA5 at 500 nM by HotSpot assay relative to control
[10] = target: T5, Myotonin-protein kinase (Homo sapiens) (UniProt Q09013); test: Inhibition of human DMPK at 500 nM by HotSpot assay relative to control
T5 sequence (whole entry): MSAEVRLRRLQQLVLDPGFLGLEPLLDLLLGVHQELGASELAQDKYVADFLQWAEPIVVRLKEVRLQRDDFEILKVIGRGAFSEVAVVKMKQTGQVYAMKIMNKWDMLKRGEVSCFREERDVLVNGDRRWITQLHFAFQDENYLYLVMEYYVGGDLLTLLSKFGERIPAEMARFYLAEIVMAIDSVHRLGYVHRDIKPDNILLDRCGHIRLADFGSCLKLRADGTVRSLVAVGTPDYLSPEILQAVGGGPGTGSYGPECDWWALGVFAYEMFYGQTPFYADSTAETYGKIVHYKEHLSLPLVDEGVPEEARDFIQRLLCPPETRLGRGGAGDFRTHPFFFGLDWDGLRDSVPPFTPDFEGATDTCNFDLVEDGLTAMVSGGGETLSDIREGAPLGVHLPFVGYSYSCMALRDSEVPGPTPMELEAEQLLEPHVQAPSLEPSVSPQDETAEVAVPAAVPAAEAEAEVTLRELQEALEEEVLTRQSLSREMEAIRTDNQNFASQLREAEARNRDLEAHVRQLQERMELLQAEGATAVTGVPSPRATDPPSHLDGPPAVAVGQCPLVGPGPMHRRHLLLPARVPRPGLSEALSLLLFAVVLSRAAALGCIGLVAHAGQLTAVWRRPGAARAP

[11] = target: Serine/threonine-protein kinase OSR1 (Homo sapiens) (UniProt O95747); test: Inhibition of human OXSR1 at 500 nM by HotSpot assay relative to control
Serine/threonine-protein kinase OSR1 (Homo sapiens), sequence (O95747 whole entry, looked up): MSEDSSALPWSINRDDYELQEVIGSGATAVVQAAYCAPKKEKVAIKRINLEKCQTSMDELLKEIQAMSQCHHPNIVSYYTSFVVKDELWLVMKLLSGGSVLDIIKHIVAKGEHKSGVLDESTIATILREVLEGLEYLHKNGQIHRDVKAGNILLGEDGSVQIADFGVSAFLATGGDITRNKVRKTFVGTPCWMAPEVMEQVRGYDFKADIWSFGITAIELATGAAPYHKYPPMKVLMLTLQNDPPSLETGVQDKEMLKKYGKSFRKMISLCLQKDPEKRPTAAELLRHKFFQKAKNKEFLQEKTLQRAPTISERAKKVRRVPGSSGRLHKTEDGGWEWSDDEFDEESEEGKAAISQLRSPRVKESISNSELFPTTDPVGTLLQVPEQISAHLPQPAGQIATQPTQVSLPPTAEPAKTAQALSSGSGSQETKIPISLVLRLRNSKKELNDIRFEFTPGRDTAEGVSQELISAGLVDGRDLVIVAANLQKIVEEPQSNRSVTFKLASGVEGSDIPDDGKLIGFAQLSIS

Ribosomal protein S6 kinase alpha-5 (Homo sapiens), sequence (O75582 whole entry, looked up): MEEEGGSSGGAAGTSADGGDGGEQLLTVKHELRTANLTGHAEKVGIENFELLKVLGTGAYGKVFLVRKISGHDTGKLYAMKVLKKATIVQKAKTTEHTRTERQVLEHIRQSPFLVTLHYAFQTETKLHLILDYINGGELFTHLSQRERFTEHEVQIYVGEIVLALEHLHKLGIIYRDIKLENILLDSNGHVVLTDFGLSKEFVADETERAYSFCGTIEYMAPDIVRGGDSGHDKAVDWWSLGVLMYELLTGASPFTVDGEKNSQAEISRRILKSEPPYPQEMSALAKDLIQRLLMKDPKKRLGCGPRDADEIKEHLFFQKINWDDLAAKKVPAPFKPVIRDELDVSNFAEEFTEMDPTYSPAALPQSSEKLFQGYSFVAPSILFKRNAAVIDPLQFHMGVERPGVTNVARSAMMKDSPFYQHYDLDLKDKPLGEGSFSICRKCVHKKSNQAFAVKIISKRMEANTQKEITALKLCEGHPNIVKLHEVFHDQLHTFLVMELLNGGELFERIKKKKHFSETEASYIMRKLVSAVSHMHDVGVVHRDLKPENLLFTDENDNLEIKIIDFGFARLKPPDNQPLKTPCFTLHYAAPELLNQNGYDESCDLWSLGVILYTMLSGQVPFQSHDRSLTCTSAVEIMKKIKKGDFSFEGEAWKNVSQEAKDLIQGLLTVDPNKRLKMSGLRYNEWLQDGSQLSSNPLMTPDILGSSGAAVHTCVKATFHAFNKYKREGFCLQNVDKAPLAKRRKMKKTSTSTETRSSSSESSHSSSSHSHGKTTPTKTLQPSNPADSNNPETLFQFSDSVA
Ribosomal protein S6 kinase beta-1 (Homo sapiens), sequence (P23443 whole entry, looked up): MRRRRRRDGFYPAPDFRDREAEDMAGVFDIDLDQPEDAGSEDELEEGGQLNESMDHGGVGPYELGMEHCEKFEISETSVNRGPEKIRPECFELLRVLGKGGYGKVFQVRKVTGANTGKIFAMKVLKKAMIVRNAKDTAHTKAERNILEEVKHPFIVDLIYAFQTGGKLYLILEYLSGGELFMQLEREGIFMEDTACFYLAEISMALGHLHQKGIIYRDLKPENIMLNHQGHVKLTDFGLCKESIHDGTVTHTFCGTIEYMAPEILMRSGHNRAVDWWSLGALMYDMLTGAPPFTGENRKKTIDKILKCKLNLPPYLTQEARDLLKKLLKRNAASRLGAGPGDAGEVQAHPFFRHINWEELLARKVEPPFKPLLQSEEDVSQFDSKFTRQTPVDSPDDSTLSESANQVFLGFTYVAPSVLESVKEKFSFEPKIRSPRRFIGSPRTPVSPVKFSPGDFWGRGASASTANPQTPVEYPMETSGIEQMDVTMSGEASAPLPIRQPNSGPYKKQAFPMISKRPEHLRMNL
Glycogen synthase kinase-3 alpha (Homo sapiens), sequence (P49840 2-483 limits assumed): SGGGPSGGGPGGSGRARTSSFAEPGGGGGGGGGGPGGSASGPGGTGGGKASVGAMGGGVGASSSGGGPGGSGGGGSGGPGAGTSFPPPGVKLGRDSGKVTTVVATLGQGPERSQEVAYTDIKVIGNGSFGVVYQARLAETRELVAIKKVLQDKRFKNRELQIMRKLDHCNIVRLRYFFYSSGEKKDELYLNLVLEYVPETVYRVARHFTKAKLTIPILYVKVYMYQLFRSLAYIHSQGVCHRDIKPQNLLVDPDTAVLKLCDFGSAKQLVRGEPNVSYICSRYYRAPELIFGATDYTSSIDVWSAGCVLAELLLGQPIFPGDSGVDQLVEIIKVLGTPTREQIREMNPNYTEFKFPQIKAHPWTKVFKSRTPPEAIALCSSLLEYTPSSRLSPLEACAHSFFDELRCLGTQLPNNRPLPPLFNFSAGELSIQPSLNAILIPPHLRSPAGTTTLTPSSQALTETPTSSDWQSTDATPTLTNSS
Casein kinase I isoform gamma-3 (Homo sapiens), sequence (Q9Y6M4 whole entry, looked up, canonical isoform): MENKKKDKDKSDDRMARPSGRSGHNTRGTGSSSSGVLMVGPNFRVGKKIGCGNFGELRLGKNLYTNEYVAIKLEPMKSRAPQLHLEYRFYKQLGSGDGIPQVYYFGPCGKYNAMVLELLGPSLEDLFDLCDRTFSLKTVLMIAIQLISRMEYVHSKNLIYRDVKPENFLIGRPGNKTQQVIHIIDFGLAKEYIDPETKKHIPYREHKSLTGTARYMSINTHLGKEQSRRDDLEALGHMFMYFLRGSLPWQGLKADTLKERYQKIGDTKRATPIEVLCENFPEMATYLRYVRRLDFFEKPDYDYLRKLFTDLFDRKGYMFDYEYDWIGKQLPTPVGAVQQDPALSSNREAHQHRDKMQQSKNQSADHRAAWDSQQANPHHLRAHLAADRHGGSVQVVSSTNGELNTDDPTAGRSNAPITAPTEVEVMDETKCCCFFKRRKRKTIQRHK
Serine/threonine-protein kinase Nek4 (Homo sapiens), sequence (P51957 whole entry, looked up): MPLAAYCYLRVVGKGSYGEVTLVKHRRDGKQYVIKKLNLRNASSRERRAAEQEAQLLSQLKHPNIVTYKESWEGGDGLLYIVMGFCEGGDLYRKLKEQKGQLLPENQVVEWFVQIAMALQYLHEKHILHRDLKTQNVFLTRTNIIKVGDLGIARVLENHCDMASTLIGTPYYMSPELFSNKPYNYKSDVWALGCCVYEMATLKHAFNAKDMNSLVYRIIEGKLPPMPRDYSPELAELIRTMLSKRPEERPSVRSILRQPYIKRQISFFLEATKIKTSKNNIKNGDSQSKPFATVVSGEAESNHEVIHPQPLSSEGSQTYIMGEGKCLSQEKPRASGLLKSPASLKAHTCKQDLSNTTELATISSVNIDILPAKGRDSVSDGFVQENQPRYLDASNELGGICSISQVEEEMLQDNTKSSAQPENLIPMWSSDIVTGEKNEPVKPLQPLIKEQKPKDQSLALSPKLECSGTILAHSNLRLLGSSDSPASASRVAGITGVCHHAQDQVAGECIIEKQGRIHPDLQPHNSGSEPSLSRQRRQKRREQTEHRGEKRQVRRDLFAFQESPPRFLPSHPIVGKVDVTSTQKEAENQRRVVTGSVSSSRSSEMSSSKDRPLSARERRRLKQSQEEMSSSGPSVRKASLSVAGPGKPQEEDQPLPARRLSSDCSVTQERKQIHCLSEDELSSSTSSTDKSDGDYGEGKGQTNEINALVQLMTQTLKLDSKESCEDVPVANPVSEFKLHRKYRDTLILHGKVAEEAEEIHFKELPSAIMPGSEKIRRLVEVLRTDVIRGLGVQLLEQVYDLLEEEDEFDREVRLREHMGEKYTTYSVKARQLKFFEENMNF

Row | Structure (SMILES) | inhibition [1] | inhibition [2] | inhibition [3] | inhibition [4] | inhibition [5] | inhibition [6] | inhibition [7] | inhibition [8] | inhibition [9] | inhibition [10] | inhibition [11]
1 | Nc1n[nH]c2nnc(-c3c(-c4ccccc4)nn4ccccc34)cc12 | 4.69% | 11.6% | 4.99% | -3.94% | 1.7% | 6.29% | 2.28% | 18.9% | -1.32% | -2.61% | -2.39%
2 | Oc1n[nH]c2nnc(-c3c(-c4ccccc4)nn4ccccc34)cc12 | -3.97% | 5.04% | -8.9% | -4.33% | 1.33% | -4.44% | -2.37% | -1.18% | -5.1% | -3.39% | -8.54%
